According to the NIST ThermoML archive (doi:10.1021/je700042z):
Several values for one entry are separate records, joined by “and”; a condition that tells them apart may be missing. Identical values can stand only once.

Experiment: cn = amount concentration of the nth substance listed, in mol/dm3
Settings: 298.15 K, 101 kPa, Liquid

O=[As](O)(O)O [arsenic acid] + O
Settings	binary diffusion coefficient
c1 = 0.000125	1.5e-09 m2/s and 1.49e-09 m2/s
c1 = 0.000407	1.41e-09 m2/s
c1 = 0.000837	1.35e-09 m2/s
c1 = 0.00101	1.33e-09 m2/s and 1.32e-09 m2/s
c1 = 0.00206	1.24e-09 m2/s
c1 = 0.00251	1.21e-09 m2/s
c1 = 0.00351	1.17e-09 m2/s
c1 = 0.00471	1.13e-09 m2/s and 1.14e-09 m2/s
c1 = 0.00506	1.12e-09 m2/s
c1 = 0.00701	1.08e-09 m2/s and 1.09e-09 m2/s
c1 = 0.00825	1.08e-09 m2/s and 1.07e-09 m2/s
c1 = 0.0119	1.03e-09 m2/s and 1.04e-09 m2/s
c1 = 0.014	1.02e-09 m2/s

O=C(O)CC(=O)O [propanedioic acid] + O
Settings	binary diffusion coefficient
c1 = 0.000124	1.67e-09 m2/s and 1.68e-09 m2/s
c1 = 0.000252	1.59e-09 m2/s and 1.61e-09 m2/s and 1.6e-09 m2/s
c1 = 0.000253	1.61e-09 m2/s and 1.6e-09 m2/s and 1.59e-09 m2/s
c1 = 0.000378	1.53e-09 m2/s and 1.52e-09 m2/s
c1 = 0.000379	1.52e-09 m2/s
c1 = 0.000502	1.49e-09 m2/s
c1 = 0.000627	1.46e-09 m2/s and 1.45e-09 m2/s
c1 = 0.000751	1.42e-09 m2/s
c1 = 0.000803	1.4e-09 m2/s
c1 = 0.00138	1.32e-09 m2/s and 1.33e-09 m2/s
c1 = 0.0019	1.27e-09 m2/s
c1 = 0.0025	1.23e-09 m2/s and 1.22e-09 m2/s
c1 = 0.0035	1.19e-09 m2/s and 1.18e-09 m2/s
c1 = 0.00454	1.16e-09 m2/s
c1 = 0.0046	1.14e-09 m2/s and 1.15e-09 m2/s and 1.16e-09 m2/s
c1 = 0.00701	1.11e-09 m2/s
c1 = 0.0101	1.08e-09 m2/s
c1 = 0.0118	1.07e-09 m2/s and 1.08e-09 m2/s
c1 = 0.015	1.06e-09 m2/s and 1.07e-09 m2/s and 1.05e-09 m2/s
c1 = 0.0201	1.03e-09 m2/s
